One series has as its target albumin (Homo sapiens, UniProt P02768). To be noted: cited from earlier work.
The conditions of series [1]: in vivo; cited from earlier work.
Series [2] has as its system periodontal pockets of patients with moderate-to-advanced periodontitis. Nature of the series: Randomized double-blind placebo-controlled study: change in periodontal pocket probing depth after scaling, root planing and curettage. The format is in vivo, human. The protocol:
1.1 Overall Study Design and Plan This was a randomized, double-blind, single-center, multiple-dose, parallel-group, placebo-controlled study. At baseline, patients presenting at Periodontal Specialists of Ames for the treatment of periodontitis were screened for the study. Patients were assessed using medical histories, dental histories, blood pressure, pulse, pregnancy tests (if female), periapical radiographs and periodontal examinations. Patients who met all of the inclusion and exclusion criteria, appeared in good health other than periodontitis, and who had documented moderate-to-advanced periodontitis with at least four destructive periodontal-diseased pockets (ranging from 5 to 12 mm in depth) were eligible for study participation. Each patient underwent a gross debridement, following which, he/she was randomized to one of four treatment groups:
Patients randomized to receive doxycycline (Groups B and C) were administered a loading dose of doxycycline 100 mg BID for one day and then instructed to take doxycycline 100 mg QD for nine consecutive days; patients in Groups A and D received matching doxycycline placebo for ten days.
On the last day of doxycycline/placebo administration, patients reported to the clinical research facility and underwent (under local anesthesia) dental sub-gingival scaling, root planing, and curettage on one side of the mouth. Following completion of these procedures, patients randomized to misoprostol (Groups C and D) received an application of a misoprostol paste (10 ug/site) and those randomized to placebo (Groups A and B) received placebo paste. Patients were instructed to apply the paste to each quadrant four times daily for the next week. One week later, patients returned to the clinical research facility and underwent sub-gingival scaling, root planing, and curettage on the other side of the mouth. The misoprostol/placebo paste was administered as described above. Patients were instructed to apply the paste to the affected teeth four times daily for an additional six weeks. They were also instructed to the proper use of the rubber tip for six weeks.
At two weeks post-treatment, patients were contacted for adverse event monitoring and compliance with study drug administration. Six weeks following the second sub-gingival scaling, planing, and curettage procedure, patients returned to the clinical research facility for periodontal and adverse event assessments. Dental prophylaxis, including periodontal maintenance was repeated at the three month intervals, with final assessments performed at 52 weeks post-treatment.
The initial dose of the misoprostol/placebo paste was applied by the periodontist, and all subsequent doses were applied by the patient. Each affected tooth was wiped with a 2×2 sponge to dry the tissue. Then 0.2 ml of the paste was dispensed from the 10.0 ml syringe onto the tip of the finger and applied to each affected tooth. The patient then sipped a little water and gently flushed the paste to gel it. Patients were instructed not to eat anything for at least one hour.
1.5.1.2.1. Periodontal Pocket Probing Depth Periodontal probing depths were measured at baseline, at six weeks post-treatment, and at 3, 6, 9 and 12 months post-treatment. More recently, a larger study at three weeks post treatment was performed as described in Example
To measure the periodontal pocket probing depth, a manual University of Michigan off-set probe marked in millimeters was inserted into the pocket with the long axis parallel to the long axis of the tooth. Insertion was continued to the base of the pocket with gentle pressure until a distinct resistance was felt.
The measurement from the tip of the probe to the gingival margin (GM-BP, gingival margin to the base of the pocket) was recorded in millimeters. On measurements of proximal sites the gingival margin may cross the probe at an angle, and the highest point on the side of the probe was read. […]

The conditions of series [3]: cited from earlier work.
For series [4], the system named is mammalian calvarial cells. To be noted: in vitro culture; cited from earlier work.
Series [5] has as its system canine mandible alveolar bone. Particulars: cited from earlier work.
Where [6] appears, read: 6 Weeks post-treatment, baseline pocket depth 5 mm.
The mark [7] stands for this setting: 6 Weeks post-treatment, baseline pocket depth 6 mm.
Where [8] appears, read: 6 Weeks post-treatment, baseline pocket depth 7 mm.
[9] abbreviates: 6 Weeks post-treatment, baseline pocket depth 8 mm.
The mark [10] stands for this setting: 6 Weeks post-treatment, baseline pocket depth 9 mm.
[11] abbreviates: 6 Weeks post-treatment, baseline pocket depth 10 mm.
[12] abbreviates: 6 Weeks post-treatment, baseline pocket depth ≦4 mm.
[13] abbreviates: 52 Weeks post-treatment, baseline pocket depth 5 mm.
Where [14] appears, read: 52 Weeks post-treatment, baseline pocket depth 6 mm.
Setting [15] is: 52 Weeks post-treatment, baseline pocket depth 7 mm.
[16] abbreviates: 52 Weeks post-treatment, baseline pocket depth 8 mm.
Where [17] appears, read: 52 Weeks post-treatment, baseline pocket depth 9 mm.
Where [18] appears, read: 52 Weeks post-treatment, baseline pocket depth 10 mm.
[19] abbreviates: 52 Weeks post-treatment, baseline pocket depth ≦4 mm.

Where two headings read alike, the source gives them in different places. Marks after values point to notes of the source that are not given here.

albumin, sequence (P02768 25-609, species assumed): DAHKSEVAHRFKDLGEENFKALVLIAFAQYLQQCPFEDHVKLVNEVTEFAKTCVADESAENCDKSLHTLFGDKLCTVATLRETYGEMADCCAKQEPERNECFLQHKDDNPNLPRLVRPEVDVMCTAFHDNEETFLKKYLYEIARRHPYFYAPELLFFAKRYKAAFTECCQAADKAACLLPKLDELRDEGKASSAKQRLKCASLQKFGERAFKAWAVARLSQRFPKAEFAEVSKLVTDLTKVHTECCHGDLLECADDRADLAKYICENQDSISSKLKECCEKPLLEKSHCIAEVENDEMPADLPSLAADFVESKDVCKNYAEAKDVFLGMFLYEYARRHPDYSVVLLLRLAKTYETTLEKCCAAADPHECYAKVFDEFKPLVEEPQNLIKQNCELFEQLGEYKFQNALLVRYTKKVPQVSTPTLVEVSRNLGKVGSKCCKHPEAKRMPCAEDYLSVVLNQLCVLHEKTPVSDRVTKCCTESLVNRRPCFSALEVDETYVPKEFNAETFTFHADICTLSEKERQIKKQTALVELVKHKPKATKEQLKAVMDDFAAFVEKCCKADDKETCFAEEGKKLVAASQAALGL

`CCCCC(C)(O)C/C=C/[C@H]1[C@H](O)CC(=O)[C@@H]1CCCCCCC(=O)O` (mixture of isomers) [Misoprostolic acid]: the albumin bound result at albumin is “approximately 85%”. For the same compound, the half-life result in series [1] is “about 30 minutes”.

Turning to `CCCC[C@@](C)(O)C/C=C/[C@H]1[C@H](O)CC(=O)[C@@H]1CCCCCCC(=O)OC` (racemic) [Misoprostol, methyl-(11α, 13E)-11,16-dihydroxy-16-methyl-9-oxoprost-13-en-1-oate], the “Mean Changes in Pocket Depths Using Patient as Inference” value (“Mean Changes … as Inference” below) in series [2] (setting [6]) was 1.57 mm; in series [2] (setting [7]) it was 2.13 mm; in series [2] (setting [8]), 2.68 mm; in series [2] (setting [9]), 2.84 mm; in series [2] (setting [10]) it was 4.46* mm; in series [2] (setting [11]) it was 4.70 mm. Also, the “Mean Changes … as Inference” value in series [2] (setting [12]) is 0.58 mm; in series [2] (setting [13]) it was 1.76*† mm; in series [2] (setting [14]), 2.49† mm; in series [2] (setting [15]) it was 3.28*† mm; in series [2] (setting [16]), 3.90*† mm; in series [2] (setting [17]), 5.06*† mm. The “Mean Changes … as Inference” value in series [2] (setting [18]) is 4.75 mm; in series [2] (setting [19]), 0.75*† mm. The “improvements in pocket depths compared to scaling, root planning and curettage alone” value in series [2] (52 weeks post-treatment) is listed as “statistically significant improvements”. Further, the “mean changes in pocket depths compared to doxycycline+placebo” value in series [2] (52 weeks post-treatment, Wilcoxon rank-sum) was “statistically significantly greater improvements”. For the same compound, the tooth mobility entry in series [2] (along with the decreases in pocket depth) is listed as “decreases in tooth mobility”. Also, the “patients requiring surgical intervention to stop the progression of the disease” value in series [2] (in vivo) is listed as “none of the patients”. Besides, the “reduction in pocket depth” value in series [2] (original pocket depth 10 mm or greater, after 6 weeks) is reported as 40-50%. Also, the storage stability entry is “stable for at least a year” in series [3] (dissolved in absolute alcohol (ethanol) and frozen); “a couple years” in series [3] (dry state, stabilized with hydroxypropyl methyl cellulose). Besides, the stability of creams entry in series [3] (in the presence of water, breaks down to prostaglandin A) is “creams last approximately only one week”.

Regarding `C[C@H]1c2cccc(O)c2C(=O)C2=C(O)[C@]3(O)C(=O)C(C(N)=O)=C(O)[C@@H](N(C)C)[C@@H]3[C@@H](O)[C@@H]21` [Doxycycline], the “Mean Changes … as Inference” value is 1.96* mm in series [2] (setting [6]); 2.63* mm in series [2] (setting [7]); 3.04* mm in series [2] (setting [8]); 3.57* mm in series [2] (setting [9]); 4.23* mm in series [2] (setting [10]); 4.13 mm in series [2] (setting [11]). Besides, the “Mean Changes … as Inference” value in series [2] (setting [12]) stood at 0.84 mm; in series [2] (setting [13]) it was 0.42 mm; in series [2] (setting [14]), 0.79 mm; in series [2] (setting [15]), 1.42 mm; in series [2] (setting [16]) it was 1.71 mm; in series [2] (setting [17]) it was 2.86 mm. Besides, the “Mean Changes … as Inference” value in series [2] (setting [18]) is given as 3.28 mm; in series [2] (setting [19]), −0.22* mm. Besides, the “improvement in pocket depth (from the Figures)” value in series [2] (pocket depth originally 10 mm, Week 52) stood at 3 mm. In addition, in series [2] (pocket depth originally 10 mm, at 6 weeks), the “reduction in depth (from the Figures)” value is given as about 5 mm.

Consider `CCCCC[C@H](O)/C=C/[C@H]1[C@H](O)CC(=O)[C@@H]1CCCCCCC(=O)O` [PGE1, prostaglandin E1], for which the “formation of mineralized nodules” value in series [4] was “increases the formation of mineralized nodules”. In series [5] (local application, adult dogs (Marks 1988)), the “new bone formation; thickness and appositional rate of alveolar bone” value is “increases the thickness and appositional rate of alveolar bone”. Also, the “alveolar bone height, cementum and periodontal ligaments” value in series [5] (local delivery, premolars and molars of adult dogs (Marks 1994)) was “increases alveolar bone height and regenerates cementum and periodontal ligaments”.

The values above are taken from patent publication US7691862B2, “Method and composition for treating periodontal disease” (Regena Therapeutics LC, priority 2003, dated 2010).
